Measurements from PMC9124820, “In vitro evaluation of fenfluramine and norfenfluramine as victims of drug interactions” (Pharmacology Research & Perspectives, 2022).

Columns and labels:
Assay type in all cases: in vitro ADME
[1] = Metabolic stability and metabolite identity, dog liver S9 fractions; details: pH 7.4; 1 µM FFA, dog liver S9 fractions 2 mg protein/mL
Experimental: (§1) LC‐MS/MS analyses to assess metabolic stability and identify the transporter substrate were performed using an API 4000 QTRAP mass spectrometer (SCIEX, Framingham, MA) with electrospray ionization in positive mode. Chromatography was performed using an Atlantis dC18 analytical column (100 × 2.1 mm, 5 µm; Waters Corporation, Milford, MA). Mobile phases were 0.2% v/v formic acid in water and 0.2% v/v formic acid in acetonitrile. For metabolic stability experiments, FFA and metabolites were eluted at a flow rate of 0.6 mL/min, with a linear gradient of 20%−80% acetonitrile from 0.30−2.0 min. […] The mass transitions monitored were 232.0 > 159.0 for FFA and 348.0 > 330.0 for 1ʹ‐OH‐midazolam‐d4 internal standard. […]
(§2) FFA (1 or 10 µM) was incubated with liver and intestinal S9 fractions (2 mg protein/mL) at 37 ± 1°C in 0.2‐mL incubation mixtures containing potassium phosphate buffer (50 mM, pH 7.4), magnesium chloride (MgCl2) (3 mM), and EDTA (1 mM, pH 7.4), in the presence or absence of a three‐component cofactor mixture (NADPH‐generating system, uridine diphosphate glucuronic acid (UDPGA) [8 mM], and 3’‐phosphoadenosine 5’‐phosphosulfate [0.5 mM]). […] Supernatant fractions were analyzed by LC‐MS/MS.
(§3) To characterize substrate loss and metabolic stability, duplicate samples were analyzed by LC‐MS/MS to determine the change in substrate concentration over the incubation period. […]

[2] = Metabolic stability and metabolite identity, rat intestinal S9 fractions; details: intestinal S9 fractions, pH 7.4; 1 µM FFA, rat intestine S9 fractions; outside assay detection limits
Experimental: (§4) LC‐MS/MS analyses to assess metabolic stability and identify the transporter substrate were performed using an API 4000 QTRAP mass spectrometer (SCIEX, Framingham, MA) with electrospray ionization in positive mode. Chromatography was performed using an Atlantis dC18 analytical column (100 × 2.1 mm, 5 µm; Waters Corporation, Milford, MA). Mobile phases were 0.2% v/v formic acid in water and 0.2% v/v formic acid in acetonitrile. For metabolic stability experiments, FFA and metabolites were eluted at a flow rate of 0.6 mL/min, with a linear gradient of 20%−80% acetonitrile from 0.30−2.0 min. For transporter substrate experiments, the gradient was slightly modified to achieve suitable chromatography. The mass transitions monitored were 232.0 > 159.0 for FFA and 348.0 > 330.0 for 1ʹ‐OH‐midazolam‐d4 internal standard. […]
as §2
(§5) To characterize substrate loss and metabolic stability, duplicate samples were analyzed by LC‐MS/MS to determine the change in substrate concentration over the incubation period. The rate constant of elimination (kel, min^−1) was determined from the time course of substrate loss based on single exponential decay (A(t)=A0(‐kelt)) . Half‐life in vitro was determined by the following equation: t1/2 = 0.693/kel. The in vitro intrinsic clearance (CLint) was calculated from the rate constant of elimination as follows: CLintμL/min/mgprotein=kelmin^‐1×incubationvolume(μL)/mgproteinperincubation.
(§6) Percent loss of substrate was determined by normalizing the mean analyte peak‐area ratio at each time point to the average of four replicates at the 0‐min time point (100%).

[3] = Metabolic stability and metabolite identity, dog intestinal S9 fractions
Experimental: as §4, §2, §5, §6

[4] = Metabolic stability and metabolite identity, human intestinal S9 fractions; details: pH 7.4, 1 µM FFA, human intestine S9 fractions, outside assay detection limits
Experimental: as §1, §2, §3

[5] = intestinal S9 fractions, pH 7.4, 1 µM FFA, dog intestine S9 fractions, outside assay detection limits

Q: Which half-life at 1 µM [1] does the source give for `CCNC(C)Cc1cccc(C(F)(F)F)c1` (racemic) [FFA, (RS)‐ethyl (α‐methyl‐3‐trifluoromethylphenethyl)amine] here?
A: Its half-life at 1 µM is 30 min.

Q: And the microsomal CLint at 1 µM [1]?
A: Its microsomal CLint at 1 µM is 11.6 µL/min/mg.

Q: What about the half-life at 1 µM [2] of the same compound?
A: The half-life at 1 µM was greater than 120 min.

Q: And the microsomal CLint at 1 µM [2]?
A: The microsomal CLint at 1 µM was less than 2.9 µL/min/mg.

Q: And the “percentage of FFA substrate loss at 10 µM relative to 1 µM” value ([3]; dog intestinal S9 fractions, higher at 10 µM than at 1 µM)?
A: Its value is “about 2 fold”.

Q: And the half-life at 1 µM [3, 5]?
A: Its half-life at 1 µM is greater than 120 min.

Q: What about the microsomal CLint at 1 µM [3, 5] of the same compound?
A: The microsomal CLint at 1 µM was less than 2.9 µL/min/mg.

Q: And the half-life at 1 µM [4]?
A: Its half-life at 1 µM is greater than 120 min.

Q: What about the microsomal CLint at 1 µM [4] of the same compound?
A: Its microsomal CLint at 1 µM is less than 2.9 µL/min/mg.
